This assay has as its target T1, EP2 receptor (Homo sapiens, UniProt P43116).
T1 construct: SF295 glioblastoma cells express high endogenous EP2 and no EP4; host or cells: SF295 glioblastoma cells
The experiment in a line: hEP2 cAMP assay (SF295 glioblastoma cells, HTRF cAMP, PGE2 stimulation). The settings on record: antagonistic activity. The assay is classed as cell-based. In outline:
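HTRF cAMP readout gave % cAMP relative to DMSO, fitted to IC50 with duplicate points. Compounds were preincubated 45 min at room temperature with EP2-expressing, EP4-negative SF295 cells in IBMX (2 mM)-containing buffer before a 30 min challenge with PGE2 at 75 nM final, its EC80.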
T1 sequence (P43116 whole entry): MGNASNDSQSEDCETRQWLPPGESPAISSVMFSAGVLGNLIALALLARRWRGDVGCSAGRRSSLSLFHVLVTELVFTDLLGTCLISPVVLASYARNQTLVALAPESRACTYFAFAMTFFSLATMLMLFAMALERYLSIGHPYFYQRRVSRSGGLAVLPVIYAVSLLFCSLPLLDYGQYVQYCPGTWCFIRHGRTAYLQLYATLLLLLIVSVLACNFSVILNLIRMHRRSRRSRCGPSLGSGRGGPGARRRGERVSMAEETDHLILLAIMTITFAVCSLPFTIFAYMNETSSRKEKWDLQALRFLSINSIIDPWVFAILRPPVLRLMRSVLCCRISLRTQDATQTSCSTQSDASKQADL
`Cc1sc2c(C)cc(F)cc2c1CCNc1cc(-c2ccc(C(=O)O)c(OC3CCCC3)c2)ncn1` [Example 152, 2-Cyclopentyloxy-4-{6-[2-(5-fluoro-2,7-dimethyl-benzo[b]thiophen-3-yl)-ethylamino]-pyrimidin-4-yl}-benzoic acid] returned an IC50 of 84 nM.
As for `COc1ccc(Cl)c2c(CCNc3cc(-c4ccc(C(=O)O)c(OC5CCCC5)c4)ncn3)c(C)sc12` [Example 153, 4-{6-[2-(4-Chloro-7-methoxy-2-methyl-benzo[b]thiophen-3-yl)-ethylamino]-pyrimidin-4-yl}-2-cyclopentyloxy-benzoic acid], the figure is 212 nM; as for `Cc1oc2c(C)cc(F)cc2c1CCNc1cc(-c2ccc(C(=O)O)c(OC3CCCC3)c2)ncn1` [Example 154, 2-Cyclopentyloxy-4-{6-[2-(5-fluoro-2,7-dimethyl-benzofuran-3-yl)-ethylamino]-pyrimidin-4-yl}-benzoic acid], 70 nM; as for `CCOc1cc(-c2cc(NCCc3c(C)sc4c(C)cc(F)cc34)ncn2)ccc1-c1noc(=O)[nH]1` [Example 155, 3-(2-Ethoxy-4-{6-[2-(5-fluoro-2,7-dimethyl-benzo[b]thiophen-3-yl)-ethylamino]-pyrimidin-4-yl}-phenyl)-[1,2,4]oxadiazol-5(4H)-one [tautomeric form: 3-(2-ethoxy-4-(6-((2-(5-fluoro-2,7-dimethylbenzo[b]thiophen-3-yl)ethyl)amino)pyrimidin-4-yl)phenyl)-[1,2,4]oxadiazol-5-ol]], 87 nM.
Under `CCOc1cc(-c2cc(NCCc3c(C)sc4c(C)cc(F)cc34)ncn2)sc1C(=O)NS(N)(=O)=O` [Example 156, 3-Ethoxy-5-(6-((2-(5-fluoro-2,7-dimethylbenzo[b]thiophen-3-yl)ethyl)amino)pyrimidin-4-yl)-N-sulfamoylthiophene-2-carboxamide] stands 10 nM; under `CCOc1cc(-c2cc(NCCc3c(C)sc4c(C)cc(F)cc34)ncn2)sc1C(=O)NS(C)(=O)=O` [Example 157, N-(3-Ethoxy-5-{6-[2-(5-fluoro-2,7-dimethyl-benzo[b]thiophen-3-yl)-ethylamino]-pyrimidin-4-yl}-thiophene-2-carbonyl)-methanesulfonamide], 18 nM; under `CCOc1cc(-c2cc(NCCc3c(C)sc4c(C)cc(F)cc34)ncn2)sc1-c1nnn[nH]1` [Example 158, {6-[4-Ethoxy-5-(1H-tetrazol-5-yl)-thiophen-2-yl]-pyrimidin-4-yl}-[2-(5-fluoro-2,7-dimethyl-benzo[b]thiophen-3-yl)-ethyl]-amine], 4 nM.
As for `CCOc1nc(-c2cc(NCCc3c(C)sc4c(C)cc(F)cc34)ncn2)sc1C(=O)O` [Example 160, 4-Ethoxy-2-{6-[2-(5-fluoro-2,7-dimethyl-benzo[b]thiophen-3-yl)-ethylamino]-pyrimidin-4-yl}-thiazole-5-carboxylic acid], the figure is 10 nM.
Regarding `CCc1nc(-c2cc(NCCc3c(C)sc4c(C)cc(F)cc34)ncn2)sc1C(=O)O` [Example 161, 4-Ethyl-2-{6-[2-(5-fluoro-2,7-dimethyl-benzo[b]thiophen-3-yl)-ethylamino]-pyrimidin-4-yl}-thiazole-5-carboxylic acid], the IC50 amounted to 27 nM. This IC50 lies about 2.7-fold higher than the previous one.
As for `CCOc1nc(-c2cc(NCCc3c(C)sc4c(C)cc(F)cc34)ncn2)sc1-c1noc(=O)[nH]1` [Example 162, 3-(4-Ethoxy-2-{6-[2-(5-fluoro-2,7-dimethyl-benzo[b]thiophen-3-yl)-ethylamino]-pyrimidin-4-yl}-thiazol-5-yl)-[1,2,4]oxadiazol-5(4H)-one [tautomeric form: 3-(4-ethoxy-2-(6-((2-(5-fluoro-2,7-dimethylbenzo[b]thiophen-3-yl)ethyl)amino)pyrimidin-4-yl)thiazol-5-yl)-[1,2,4]oxadiazol-5-ol]], the figure is 35 nM.
Under `CCc1nc(-c2cc(NCCc3c(C)sc4c(C)cc(F)cc34)ncn2)sc1-c1noc(=O)[nH]1` [Example 163, 3-(4-Ethyl-2-{6-[2-(5-fluoro-2,7-dimethyl-benzo[b]thiophen-3-yl)-ethylamino]-pyrimidin-4-yl}-thiazol-5-yl)-[1,2,4]oxadiazol-5(4H)-one [tautomeric form: 3-(4-ethyl-2-(6-((2-(5-fluoro-2,7-dimethylbenzo[b]thiophen-3-yl)ethyl)amino)pyrimidin-4-yl)thiazol-5-yl)-[1,2,4]oxadiazol-5-ol]] stands 20 nM; under `CCOc1cc(-c2cc(NCCc3c(C#N)sc4c(OC)cccc34)ncn2)ccc1CC(=O)O` [Example 164, (4-{6-[2-(2-Cyano-7-methoxy-benzo[b]thiophen-3-yl)-ethylamino]-pyrimidin-4-yl}-2-ethoxy-phenyl)-acetic acid], 348 nM; under `CCOc1cc(-c2cc(NCCc3c(C#N)sc4c(C)cc(F)cc34)ncn2)cc(F)c1CC(=O)O` [Example 165, (4-{6-[2-(2-Cyano-5-fluoro-7-methyl-benzo[b]thiophen-3-yl)-ethylamino]-pyrimidin-4-yl}-2-ethoxy-6-fluoro-phenyl)-acetic acid], 129 nM.
As for `Cc1sc2c(C)cccc2c1CCNc1cc(-c2ccc(C(=O)O)c(SCC(C)C)c2)ncn1` [Example 166, 4-{6-[2-(2,7-Dimethyl-benzo[b]thiophen-3-yl)-ethylamino]-pyrimidin-4-yl}-2-isobutylsulfanyl-benzoic acid], the figure is 183 nM; as for `CCCc1cc(-c2cc(NCCc3c(C#N)sc4c(C)cc(F)cc34)ncn2)ccc1C(=O)O` [Example 167, 4-{6-[2-(2-Cyano-5-fluoro-7-methyl-benzo[b]thiophen-3-yl)-ethylamino]-pyrimidin-4-yl}-2-propyl-benzoic acid], 11 nM; as for `COc1cc(-c2cc(NCCc3c(C#N)sc4c(C)cc(F)cc34)ncn2)ccc1CC(=O)O` [Example 168, (4-{6-[2-(2-Cyano-5-fluoro-7-methyl-benzo[b]thiophen-3-yl)-ethylamino]-pyrimidin-4-yl}-2-methoxy-phenyl)-acetic acid], 3030 nM.
`CCCOc1cc(-c2cc(NCCc3c(C#N)sc4c(C)cc(F)cc34)ncn2)ccc1CC(=O)O` [Example 169, (4-{6-[2-(2-Cyano-5-fluoro-7-methyl-benzo[b]thiophen-3-yl)-ethylamino]-pyrimidin-4-yl}-2-propoxy-phenyl)-acetic acid] displayed an IC50 of 142 nM. Against the preceding compound, the IC50 is about 21-fold lower.
As for `CCCc1cc(-c2cc(NCCc3c(C#N)sc4c(C)cc(F)cc34)ncn2)ccc1CC(=O)O` [Example 170, (4-{6-[2-(2-Cyano-5-fluoro-7-methyl-benzo[b]thiophen-3-yl)-ethylamino]-pyrimidin-4-yl}-2-propyl-phenyl)-acetic acid], the figure is 116 nM; as for `Cc1cc(F)cc2c(CCNc3cc(-c4ccc(CC(=O)O)c(OC(C)C)c4)ncn3)c(C#N)sc12` [Example 171, (4-{6-[2-(2-Cyano-5-fluoro-7-methyl-benzo[b]thiophen-3-yl)-ethylamino]-pyrimidin-4-yl}-2-isopropoxy-phenyl)-acetic acid], 275 nM.
As for `Cc1cc(F)cc2c(CCNc3cc(-c4ccc(C(=O)O)c(OC(C)C)c4)ncn3)c(C#N)sc12` [Example 172, 4-{6-[2-(2-Cyano-5-fluoro-7-methyl-benzo[b]thiophen-3-yl)-ethylamino]-pyrimidin-4-yl}-2-isopropoxy-benzoic acid], the figure is 50 nM.

The IC50 is the concentration needed to halve the response being measured.
